Laboratory results from PMC3048469 (FEBS letters, 2011).
Like-named read-outs stand apart in the source and are kept apart here.

Target: Rv1086 (Mycobacterium tuberculosis, UniProt P9WFF5)
Format: biochemical
Details: 5 mM MgCl2, pH 7.0, 37 °C

Chain of Rv1086 (P9WFF5 whole entry): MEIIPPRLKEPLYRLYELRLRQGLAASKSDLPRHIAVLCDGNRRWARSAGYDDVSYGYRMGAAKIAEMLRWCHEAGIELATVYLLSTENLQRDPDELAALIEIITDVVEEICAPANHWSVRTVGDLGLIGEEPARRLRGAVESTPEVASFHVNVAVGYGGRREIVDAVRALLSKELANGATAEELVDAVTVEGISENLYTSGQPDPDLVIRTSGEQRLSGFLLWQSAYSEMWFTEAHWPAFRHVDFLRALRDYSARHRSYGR

Row | SMILES | GC-MS of dephosphorylated product (100 μM DMAPP, 100 μM IPP, 0.3% Triton X-100) | GC-MS of dephosphorylated product (100 μM GPP, co-substrate IPP)
1 | CC(C)=CCOP(=O)(O)OP(=O)(O)O [DMAPP] | (Z,E)-FPP also was produced by Rv1086 from IPP and DMAPP in the absence of Rv0989 | –
2 | CC(C)=CCC/C(C)=C/COP(=O)(O)OP(=O)(O)O [GPP] | – | Rv1086 assayed in the presence of authentic GPP, GPP synthesized by Rv0989c, or DMAPP
